In US6933320B2, “Combination comprising combretastatin and anticancer agents” (priority 2001, dated 2005):
Several values for one entry are separate records, joined by “and”; a condition that tells them apart may be missing. Equal values may be shown once. Read-outs that look alike come from different tables or passages of the source.

How the values were obtained:
[1] = Solubility in water (statement); assay type: physicochemical; details: statement in words, no method given
MA13/C = assay type: in vivo
Description: This efficacy may be quantified, for example by the log10 cell kill, which is determined by the following formula: log10 cells killed=T-C(days)/3.32×Td in which T-C represents the time taken for the cells to grow, which is the mean time in days for the tumors of the treated group (T) to reach a predetermined value (1 g for example) and the tumors of the control group (C) to reach the same value, and Td represents the time in days needed for the volume of the tumors in the control group to double. (T. H. Corbett et al., Cancer, 40, 2660.2680 (1977); F. M. Schabel et al., Cancer Drug Development, Part B, Methods in Cancer Research, 17, 3-51, New York, Academic Press Inc. (1979)). A product is considered to be active if the log10 cell kill is greater than or equal to 0.7. A product is considered to be very active if the log10 cell kill is greater than 2.8.
(§1) The efficacy of the combinations on solid tumors were determined experimentally in the following manner:
(§2) The animals subjected to the experiment, generally mice, were subcutaneously grafted bilaterally with 30 to 60 mg of a tumor fragment on day 0. The animals bearing tumors were mixed before being subjected to the various treatments and controls. In the case of treatment of advanced tumors, tumors were allowed to develop to the desired size, and animals having insufficiently developed tumors were eliminated. The selected animals were distributed at random to undergo the treatments and controls. Animals not bearing tumors were also subjected to the same treatments as the tumor-bearing animals in order to be able to dissociate the toxic effect from the specific effect on the tumor. Chemotherapy generally began from 3 to 22 days after grafting, depending on the type of tumor, and the animals were observed every day. The different animal groups were weighed 3 or 4 times a week until the maximum weight loss was attained, and the groups were then weighed at least once a week until the end of the trial.
(§3) The tumors were measured 2 or 3 times a week until the tumor reached approximately 2 g, or until the animal died if this occurred before the tumor reached 2 g. The animals were autopsied when sacrificed.
(§4) The antitumor activity was determined in accordance with different parameters which were recorded such as dose (mg/kg), mode of administration, time of administration, cytotoxicity, toxicity and log cell kill.
In this and the following examples, RPR 258062A corresponds to the hydrochloride salt of compound IIa. The agents were administered intravenously unless otherwise specified.

C51 = experiment: In vivo evaluation on subcutaneously grafted solid tumor C51
Description: A product is considered to be active if the log10 cell kill is greater than or equal to 0.7. A product is considered to be very active if the log10 cell kill is greater than 2.8.
as §1
as §2, with “Animals not bearing tumors were also subjected to the same treatments as the tumor-bearing animals in order to be able to dissociate the toxic effect from the specific effect on the tumor. Chemotherapy generally began from 3 to 22 days after grafting, depending on the type of tumor, and the animals were observed every day.” left out
as §3, §4
The agents were administered intravenously unless otherwise specified.

[2] = MA13/C tumor, single agent at HNTD, i.v., schedule days 15, 22 (doxorubicin study)
[3] = sequential combination CPT-11 oral 400 mg/kg days 13-16 + RPR 258062A 36 mg/kg day 17
[4] = single agent at HNTD, RPR 258062A i.v. days 13-17 (2x/d), CPT-11 oral days 14-17
[5] = MA13/C tumor, single agent at HNTD, i.v., docetaxel days 17, 24 (* evaluated on mice that developed tumor), RPR 258062A days 17, 24 (2x/d)
[6] = MA13/C tumor, single agent at HNTD, i.v., docetaxel days 17, 24, RPR 258062A days 17, 24 (2x/d)
[7] = single agent at HNTD, i.v., schedule days 12, 16
[8] = MA13/C tumor, single agent at HNTD, i.v., schedule days 15, 25 (vinorelbine study)
[9] = sequential combination RPR 258062A 58 mg/kg day 14 + CDDP 10 mg/kg days 15, 19, i.v.
[10] = simultaneous combination RPR 258062A 1st 116 mg/kg days 12, 16 + CDDP 10 mg/kg days 12, 16, i.v.
[11] = MA13/C tumor, sequential combination RPR 258062A 1st 75 mg/kg day 14 + vinorelbine 2nd 32 mg/kg days 15, 25, i.v.

COc1ccc(/C=C\c2cc(OC)c(OC)c(OC)c2)cc1NC(=O)C(N)CO (centres unmarked) [IIa]
Solubility in water [1]: soluble in water

COc1cccc2c1C(=O)c1c(O)c3c(c(O)c1C2=O)C[C@@](O)(C(=O)CO)C[C@@H]3O[C@H]1C[C@H](N)[C@H](O)[C@H](C)O1 [Doxorubicin, doxorubicin, reference compound]
LcK (log cell kill) (MA13/C; [2]): 4.5
RR CR (complete response) (MA13/C; [2]): 4/6
RR PR (partial response) (MA13/C; [2]): 4/6
T-C (tumor growth delay) (MA13/C; [2]): 53.5 days
TFS (tumor free survivors) (MA13/C; [2]): 0/6
HNTD Dose (highest nontoxic dose) (MA13/C; mouse, in vivo, iv): 17.4 mg/kg

CCc1c2c(nc3ccc(OC(=O)N4CCC(N5CCCCC5)CC4)cc13)-c1cc3c(c(=O)n1C2)COC(=O)[C@]3(O)CC [CPT-11, reference compound]
LcK (log cell kill) (C51; [3]): 1.9
RR CR (complete response) (C51; [3]): 3/5
RR PR (partial response) (C51; [3]): 5/5
T-C (tumor growth delay) (C51; [3]): 15.1 days
TFS (tumor free survivors) (C51; [3]): 0/5
LcK (log cell kill) (C51; [4]): 1.1
RR CR (complete response) (C51; [4]): 0/5
RR PR (partial response) (C51; [4]): 0/5
T-C (tumor growth delay) (C51; [4]): 8.7 days
TFS (tumor free survivors) (C51; [4]): 0/5

CC(=O)O[C@@]12CO[C@@H]1C[C@H](O)[C@@]1(C)C(=O)[C@H](O)C3=C(C)[C@@H](OC(=O)[C@H](O)[C@@H](NC(=O)OC(C)(C)C)c4ccccc4)C[C@@](O)([C@@H](OC(=O)c4ccccc4)[C@H]21)C3(C)C [Docetaxel, docetaxel, reference compound]
LcK (log cell kill) (MA13/C; [5]): 3.2*
RR CR (complete response) (MA13/C; [6]): 4/6
RR PR (partial response) (MA13/C; [6]): 6/6
T-C (tumor growth delay) (MA13/C; [6]): 26.7 days
TFS (tumor free survivors) (MA13/C; [6]): 3/6
HNTD Dose (highest nontoxic dose) (MA13/C; mouse, in vivo, iv): 68 mg/kg

N.N.[Cl][Pt][Cl] [CDDP, cisplatinum, reference compound]
LcK (log cell kill) (C51; [7]): 1.9
RR CR (complete response) (C51; [7]): 0/6
RR PR (partial response) (C51; [7]): 5/6
T-C (tumor growth delay) (C51; [7]): 16.5 days
TFS (tumor free survivors) (C51; [7]): 0/6

CCC1=C[C@@H]2CN(C1)Cc1c([nH]c3ccccc13)[C@@](C(=O)OC)(c1cc3c(cc1OC)N(C)[C@H]1[C@@](O)(C(=O)OC)[C@H](OC(C)=O)[C@]4(CC)C=CCN5CC[C@]31[C@@H]54)C2 [Vinorelbine, vinorelbine, reference compound]
LcK (log cell kill) (MA13/C; [8]): 4.6
RR CR (complete response) (MA13/C; [8]): 5/5
RR PR (partial response) (MA13/C; [8]): 5/5
T-C (tumor growth delay) (MA13/C; [8]): 45.5 days
TFS (tumor free survivors) (MA13/C; [8]): 0/5
HNTD Dose (highest nontoxic dose) (MA13/C; mouse, in vivo, iv): 19.8 mg/kg

COc1ccc(/C=C\c2cc(OC)c(OC)c(OC)c2)cc1NC(=O)C(N)CO (centres unmarked) [RPR 258062A]
HNTD Dose (highest nontoxic dose) (C51; sequential combination CPT-11 oral (days 13-16) + RPR 258062A i.v. (day 17), dose of each constituent): 36 mg/kg
LcK (log cell kill) (C51; [9]): 5.9
RR CR (complete response) (C51; [9]): 5/5
RR PR (partial response) (C51; [9]): 5/5
T-C (tumor growth delay) (C51; [9]): 51 days
TFS (tumor free survivors) (C51; [9]): 0/5
HNTD Dose (highest nontoxic dose) (C51; sequential combination RPR 258062A (day 14) + CDDP (days 15, 19), i.v., dose of each constituent): 58 mg/kg
RR CR (complete response) (C51; [10]): 6/6
RR PR (partial response) (C51; [10]): 6/6
TFS (tumor free survivors) (C51; [10]): 6/6
HNTD Dose (highest nontoxic dose) (C51; simultaneous combination RPR 258062A 1st (days 12, 16) + CDDP (days 12, 16), i.v., dose of each constituent): 116 mg/kg
LcK (log cell kill) (C51; [4]): 1.3
RR CR (complete response) (C51; [4]): 0/5
RR PR (partial response) (C51; [4]): 5/5
T-C (tumor growth delay) (C51; [4]): 10.3 days
TFS (tumor free survivors) (C51; [4]): 0/5
LcK (log cell kill) (C51; [7]): 1.2
RR CR (complete response) (C51; [7]): 0/6
RR PR (partial response) (C51; [7]): 6/6
T-C (tumor growth delay) (C51; [7]): 10 days
TFS (tumor free survivors) (C51; [7]): 0/6
HNTD Dose (highest nontoxic dose) (C51; single agent, RPR 258062A i.v. days 13-17 (2x/d), CPT-11 oral days 14-17): 116.5 mg/kg
HNTD Dose (highest nontoxic dose) (C51; single agent, i.v., schedule days 12, 16): 116 mg/kg
RR CR (complete response) (MA13/C; MA13/C tumor, sequential combination RPR 258062A 150 mg/kg days 16, 23 (2x/d) + docetaxel 109.6 mg/kg days 17, 24, i.v.): 6/6
RR CR (complete response) (MA13/C; [11]): 5/5
RR PR (partial response) (MA13/C; [11]): 5/5
T-C (tumor growth delay) (MA13/C; [11]): 84.7 days
HNTD Dose (highest nontoxic dose) (MA13/C; MA13/C tumor, sequential combination RPR 258062A 1st (day 14) + vinorelbine 2nd (days 15, 25), i.v., dose of each constituent): 75 mg/kg
HNTD Dose (highest nontoxic dose) (MA13/C; MA13/C tumor, sequential combination RPR 258062A (days 15, 21) + doxorubicin (days 16, 22), i.v., dose of each constituent): 139.6 mg/kg
HNTD Dose (highest nontoxic dose) (MA13/C; MA13/C tumor, sequential combination RPR 258062A (days 16, 23, 2x/d) + docetaxel (days 17, 24), i.v., dose of each constituent): 150 mg/kg
LcK (log cell kill) (MA13/C; [2]): 1.3
RR CR (complete response) (MA13/C; [2]): 0/6
RR PR (partial response) (MA13/C; [2]): 0/6
T-C (tumor growth delay) (MA13/C; [2]): 30.2 days
TFS (tumor free survivors) (MA13/C; [2]): 0/6
LcK (log cell kill) (MA13/C; [8]): 0.5
RR CR (complete response) (MA13/C; [8]): 0/5
RR PR (partial response) (MA13/C; [8]): 0/5
T-C (tumor growth delay) (MA13/C; [8]): 5 days
TFS (tumor free survivors) (MA13/C; [8]): 0/5
LcK (log cell kill) (MA13/C; [5]): 1.3
RR CR (complete response) (MA13/C; [6]): 1/6
RR PR (partial response) (MA13/C; [6]): 1/6
T-C (tumor growth delay) (MA13/C; [6]): 10.8 days
TFS (tumor free survivors) (MA13/C; [6]): 0/6
HNTD Dose (highest nontoxic dose) (MA13/C; MA13/C tumor, single agent, i.v., schedule days 15, 22 (doxorubicin study)): 186.0 mg/kg
HNTD Dose (highest nontoxic dose) (MA13/C; MA13/C tumor, single agent, i.v., schedule days 15, 25 (vinorelbine study)): 150 mg/kg
HNTD Dose (highest nontoxic dose) (MA13/C; MA13/C tumor, single agent, i.v., docetaxel days 17, 24, RPR 258062A days 17, 24 (2x/d)): 242 mg/kg
RR CR (complete response) (MA13/C; mouse, in vivo): 7/7
RR PR (partial response) (MA13/C; mouse, in vivo): 6/6 and 7/7
T-C (tumor growth delay) (MA13/C; mouse, in vivo): 74.8 days and 80.6 days
TFS (tumor free survivors) (MA13/C; mouse, in vivo): 2/5 and 4/6 and 2/7
